The results in this text go back to ChEMBL document CHEMBL3227927, “Synthesis and hypoglycemic activity of pyridyl alcohols” (J Med Chem, 1979).

The structures appear in SMILES notation. Active and inactive are the calls of the source. No cut-off for these calls is given here.

The subject of data set [1] is Rattus norvegicus. Nature of the data set: Hypoglycemic activity in 48 hrs fasted Charles River rat at 150 mg/kg, po measured at 4 hrs relative to control. Type of data set: functional.
Data set [2] concerns Rattus norvegicus. Nature of the data set: Hypoglycemic activity in 48 hrs fasted Charles River rat at 150 mg/kg, po measured at 2 hrs relative to control. Type of data set: functional.
Data set [3] deals with Rattus norvegicus. In words: Hypoglycemic activity in 48 hrs fasted Charles River rat at 150 mg/kg, po measured at 1 hr relative to control. The class given is functional.
Data set [4] is filed under the species Rattus norvegicus. Nature of the data set: Toxicity in rat assessed as mortality measured up to 24 hrs. Type of data set: organism-based. The following applies: in vivo.
For data set [5], the system named is Rattus norvegicus. In words: Hypoglycemic activity in 48 hrs fasted Charles River rat at 150 mg/kg, po measured at 5 hrs relative to control. The class given is functional.
Data set [6] concerns Rattus norvegicus. Nature of the data set: Hypoglycemic activity in 48 hrs fasted Charles River rat at 50 mg/kg measured at 7 hrs relative to control. The class given is functional, organism-based. Also noted: dose 50 mg/kg.
Data set [7] has as its system Rattus norvegicus. In words: Toxicity in rat assessed as increase in hepatic triglyceride level at 50 mg/kg measured after 4 hrs relative to control. Type of data set: organism-based. Also noted: dose 50 mg/kg. The note with it: in vivo.
The species entered for data set [8] is Rattus norvegicus. In words: Toxicity in rat assessed as increase in hepatic triglyceride level measured up to 24 hrs. The class given is organism-based. The following applies: in vivo.
Data set [9] deals with Rattus norvegicus. Nature of the data set: Hypoglycemic activity in 48 hrs fasted Charles River rat at 260 mg/kg, po measured at 2 hrs relative to control. The class given is functional.
The subject of data set [10] is Rattus norvegicus. Nature of the data set: Hypoglycemic activity in 48 hrs fasted Charles River rat at 260 mg/kg, po measured at 1 hr relative to control. Type of data set: functional.
Data set [11] concerns Rattus norvegicus. In words: Hypoglycemic activity in 48 hrs fasted Charles River rat at 260 mg/kg, po measured at 4 hrs relative to control. The class given is functional.
Data set [12] concerns Rattus norvegicus. In words: Hypoglycemic activity in 48 hrs fasted Charles River rat at 200 mg/kg, po measured at 1 hr relative to control. The class given is functional.
In data set [13] the test system is Rattus norvegicus. Nature of the data set: Hypoglycemic activity in 48 hrs fasted Charles River rat at 200 mg/kg, po measured at 4 hrs relative to control. Type of data set: functional.
The subject of data set [14] is Rattus norvegicus. In words: Hypoglycemic activity in 48 hrs fasted Charles River rat at 200 mg/kg, po measured at 2 hrs relative to control. The class given is functional.
The species named for data set [15] is Rattus norvegicus. Nature of the data set: Toxicity in rat assessed as mortality measured at 6 hrs. Type of data set: organism-based. The following applies: in vivo.
Data set [16] relates to Rattus norvegicus. In words: Hypoglycemic activity in 48 hrs fasted Charles River rat at 150 mg/kg, po measured at 7 hrs relative to control. Type of data set: functional, organism-based. Details: dose 150 mg/kg.
For data set [17], the system named is Rattus norvegicus. In words: Hypoglycemic activity in 48 hrs fasted Charles River rat at 300 mg/kg, ip measured at 2 hrs relative to control. Type of data set: functional. The note with it: route intraperitoneal.
The test system of data set [18] is Rattus norvegicus. Nature of the data set: Hypoglycemic activity in 48 hrs fasted Charles River rat at 300 mg/kg, ip measured at 4 hrs relative to control. Type of data set: functional. The following applies: route intraperitoneal.
The subject of data set [19] is Rattus norvegicus. In words: Hypoglycemic activity in 48 hrs fasted Charles River rat at 300 mg/kg, ip measured at 1 hr relative to control. The class given is functional. The note with it: route intraperitoneal.
For data set [20], the system named is Rattus norvegicus. Nature of the data set: Hypoglycemic activity in 48 hrs fasted Charles River rat at 300 mg/kg, po measured at 1 hr relative to control. The class given is functional.
The subject of data set [21] is Rattus norvegicus. Nature of the data set: Hypoglycemic activity in 48 hrs fasted Charles River rat at 300 mg/kg, po measured at 4 hrs relative to control. Type of data set: functional.
Data set [22] has as its system Rattus norvegicus. In words: Hypoglycemic activity in 48 hrs fasted Charles River rat at 300 mg/kg, po measured at 2 hrs relative to control. The class given is functional.

`Cc1cccnc1CCO`: the Activity is given as 8% in the data set on Rattus norvegicus [1], -14% in the data set on Rattus norvegicus [2] and -8% in the data set with Rattus norvegicus [3].

Take `Cc1cccnc1CCCCO`: the figures for the Activity in the data set on Rattus norvegicus [1], in the data set with Rattus norvegicus [2] and in the data set with Rattus norvegicus [3] were 0%, -9% and -9%, respectively.

In the case of `OCCCc1ccncc1`, the Activity amounted to 33% in the data set with Rattus norvegicus [1], 14% in the data set with Rattus norvegicus [2] and 17% in the data set with Rattus norvegicus [3].

For `Cc1cccnc1CCCO`, the Activity is given as -68% with Rattus norvegicus [1]; “Toxic” in the data set filed under Rattus norvegicus [4]; -87% in the data set with Rattus norvegicus [5]; -18% in the data set on Rattus norvegicus [2]; -22% in the data set with Rattus norvegicus [3]. The outcome with Rattus norvegicus [6] was Active. Also, the “fold change (FC)” value in the data set on Rattus norvegicus [7] was 10.

As for `Cc1cccnc1C.Cl`, the Activity in the data set with Rattus norvegicus [1] was 8%; with Rattus norvegicus [2], -5%; in the data set with Rattus norvegicus [3], 0%.

As for `CC(=O)Cc1ncccc1C`, the Activity with Rattus norvegicus [1] is -8%; in the data set on Rattus norvegicus [2], -14%; in the data set with Rattus norvegicus [3] it was -12%.

Consider `Cc1cccnc1CCC(C)(C)O.[O-][Cl+3]([O-])([O-])O`, for which the values for the Activity in the data set with Rattus norvegicus [1], in the data set on Rattus norvegicus [2] and with Rattus norvegicus [3] were -10%, -7% and 6%, respectively.

Consider `Cc1ccc[n+]([O-])c1CCCO`, for which the results for the Activity in the data set on Rattus norvegicus [1], in the data set on Rattus norvegicus [2] and with Rattus norvegicus [3] were -8%, -3% and -6%, respectively.

With `OCc1ccncc1` [PYRIDINE 4-METHANOL], the Activity in the data set on Rattus norvegicus [1] is given as -4%; in the data set on Rattus norvegicus [2], 0%; in the data set on Rattus norvegicus [3] it was 4%.

Regarding `Cc1cccnc1CC(C)O.Cl` (centres undefined), the Activity with Rattus norvegicus [1] was -12%; in the data set on Rattus norvegicus [2] it was -3%; in the data set with Rattus norvegicus [3], 3%.

In the case of `CC(=O)OCCCc1ncccc1C`, the Activity in the data set with Rattus norvegicus [1] was -73%; in the data set listed under Rattus norvegicus [4], “Toxic”; in the data set with Rattus norvegicus [2], -34%; in the data set filed under Rattus norvegicus [8], “Toxic”; in the data set with Rattus norvegicus [3], 21%.

As to `Cc1cnc(CO)c(C)c1.Cl`, the Activity in the data set with Rattus norvegicus [1] is -1%; with Rattus norvegicus [5], -9%; in the data set with Rattus norvegicus [2], -17%; with Rattus norvegicus [3], -12%.

Turning to `Cc1ccc(CCCO)nc1.[O-][Cl+3]([O-])([O-])O`, the figures for the Activity in the data set on Rattus norvegicus [9], in the data set on Rattus norvegicus [10] and with Rattus norvegicus [11] were -1%, 0% and 18%, respectively.

With `Cc1cccnc1CC(O)C(=O)O.Cl` (centres undefined), the figures for the Activity in the data set with Rattus norvegicus [1], with Rattus norvegicus [2] and in the data set on Rattus norvegicus [3] were -1%, -5% and -9%, respectively.

On to `C[n+]1cccc(CCCO)c1.[I-]`, for which the Activity with Rattus norvegicus [1] is on record as -12%; with Rattus norvegicus [2] it was -14%; with Rattus norvegicus [3] it was -13%.

With `CC1CCCNC1CCCO.Cl` (centres undefined), the Activity was -6% in the data set on Rattus norvegicus [1], -3% in the data set on Rattus norvegicus [2] and -15% in the data set on Rattus norvegicus [3].

For `CCCCNC(=O)NS(=O)(=O)c1ccc(C)cc1` [TOLBUTAMIDE], the values for the Activity in the data set on Rattus norvegicus [12], with Rattus norvegicus [13] and in the data set on Rattus norvegicus [14] were 28%, 48% and 47%, respectively.

With `Cc1cccnc1CCC(=O)O`, the Activity in the data set with Rattus norvegicus [1] is on record as -85%; in the data set filed under Rattus norvegicus [15], “Toxic”; in the data set filed under Rattus norvegicus [4], “Toxic”; in the data set with Rattus norvegicus [5] it was -90%; in the data set with Rattus norvegicus [2], -28%; in the data set filed under Rattus norvegicus [8], “Toxic”. Moreover, in the data set on Rattus norvegicus [3], the Activity is reported as 5%.

For the compound `Cc1cnc(CCCO)c(C)c1.Cl`, the Activity in the data set with Rattus norvegicus [1] is reported as -72%; in the data set filed under Rattus norvegicus [4], “Toxic”; with Rattus norvegicus [2] it was -39%; in the data set listed under Rattus norvegicus [8], “Toxic”; in the data set on Rattus norvegicus [3], 27%.

Turning to `OCCCc1cccnc1`, the Activity with Rattus norvegicus [1] is given as -24%; with Rattus norvegicus [2], -12%; with Rattus norvegicus [3] it was 3%. The result in the data set on Rattus norvegicus [16] was Active.

Regarding `Cc1cccnc1C(=O)O`, the Activity in the data set on Rattus norvegicus [17] was -9%; with Rattus norvegicus [18] it was -15%; in the data set with Rattus norvegicus [19], -8%.

Regarding `OCc1ccccn1` [PICONOL], the Activity with Rattus norvegicus [1] came out at 2%; in the data set on Rattus norvegicus [2], 6%; in the data set on Rattus norvegicus [3], 4%.

`Cc1cccnc1/C=C/C(=O)O`: the Activity in the data set with Rattus norvegicus [1] is 23%; with Rattus norvegicus [2], 4%; in the data set on Rattus norvegicus [3], -5%.

With `Cc1cccnc1CCCS`, the Activity is -18% in the data set on Rattus norvegicus [1], -14% with Rattus norvegicus [2] and -9% with Rattus norvegicus [3].

With `Cc1ncccc1CCCO.[O-][Cl+3]([O-])([O-])O`, the Activity is -1% with Rattus norvegicus [1], -8% with Rattus norvegicus [2] and -4% in the data set with Rattus norvegicus [3].

For `COCCCc1ncccc1C`, the Activity is recorded as -29% in the data set on Rattus norvegicus [1]; “Toxic” in the data set filed under Rattus norvegicus [4]; -52% in the data set with Rattus norvegicus [5]; -14% in the data set on Rattus norvegicus [2]; “Toxic” in the data set listed under Rattus norvegicus [8]; -15% in the data set with Rattus norvegicus [3].

Take `Cc1ncccc1CO.Cl`: the results for the Activity in the data set with Rattus norvegicus [1], with Rattus norvegicus [2] and in the data set on Rattus norvegicus [3] were -11%, 1% and -3%, respectively.

`OCc1cccnc1` [NICOTINYL ALCOHOL]: the Activity was -19% in the data set on Rattus norvegicus [1], -3% in the data set with Rattus norvegicus [2] and 11% with Rattus norvegicus [3].

As for `OCCCc1ccccn1`, the Activity in the data set on Rattus norvegicus [1] is 46%; with Rattus norvegicus [5], 42%; in the data set with Rattus norvegicus [2], 9%.

Turning to `Cc1ccc[n+](C)c1CCCO.[I-]`, the Activity is -14% in the data set with Rattus norvegicus [1], 3% in the data set on Rattus norvegicus [2] and -1% with Rattus norvegicus [3].

Regarding `Cc1cccnc1CC(O)C(Cl)(Cl)Cl.Cl` (centres undefined), the Activity with Rattus norvegicus [1] is recorded as -16%; in the data set on Rattus norvegicus [2], -29%; in the data set with Rattus norvegicus [3], -16%.

On to `Cc1cccnc1CO.Cl`, for which the figures for the Activity in the data set on Rattus norvegicus [1], in the data set with Rattus norvegicus [2] and in the data set on Rattus norvegicus [3] were 3%, 0% and -9%, respectively.

Consider `Cc1cc2ccccc2nc1CCCO.Cl`, for which the Activity in the data set with Rattus norvegicus [1] was -10%; in the data set on Rattus norvegicus [2] it was -9%; with Rattus norvegicus [3], 16%.

Take `OC(Cc1ccccn1)C(Cl)(Cl)Cl` (centres undefined): the results for the Activity in the data set on Rattus norvegicus [20], with Rattus norvegicus [21] and with Rattus norvegicus [22] were 24%, 101% and 40%, respectively.
